Each structure is given as a SMILES string.

The DC50 is the concentration at which degradation of the target reaches its halfway point. One may read the Dmax as the greatest extent of degradation seen.

The target in this assay is T1, Androgen Receptor (Homo sapiens, UniProt P10275).
T1 construct: endogenous in cells; host or cells: VCaP cells
T1 sequence (P10275 1-920): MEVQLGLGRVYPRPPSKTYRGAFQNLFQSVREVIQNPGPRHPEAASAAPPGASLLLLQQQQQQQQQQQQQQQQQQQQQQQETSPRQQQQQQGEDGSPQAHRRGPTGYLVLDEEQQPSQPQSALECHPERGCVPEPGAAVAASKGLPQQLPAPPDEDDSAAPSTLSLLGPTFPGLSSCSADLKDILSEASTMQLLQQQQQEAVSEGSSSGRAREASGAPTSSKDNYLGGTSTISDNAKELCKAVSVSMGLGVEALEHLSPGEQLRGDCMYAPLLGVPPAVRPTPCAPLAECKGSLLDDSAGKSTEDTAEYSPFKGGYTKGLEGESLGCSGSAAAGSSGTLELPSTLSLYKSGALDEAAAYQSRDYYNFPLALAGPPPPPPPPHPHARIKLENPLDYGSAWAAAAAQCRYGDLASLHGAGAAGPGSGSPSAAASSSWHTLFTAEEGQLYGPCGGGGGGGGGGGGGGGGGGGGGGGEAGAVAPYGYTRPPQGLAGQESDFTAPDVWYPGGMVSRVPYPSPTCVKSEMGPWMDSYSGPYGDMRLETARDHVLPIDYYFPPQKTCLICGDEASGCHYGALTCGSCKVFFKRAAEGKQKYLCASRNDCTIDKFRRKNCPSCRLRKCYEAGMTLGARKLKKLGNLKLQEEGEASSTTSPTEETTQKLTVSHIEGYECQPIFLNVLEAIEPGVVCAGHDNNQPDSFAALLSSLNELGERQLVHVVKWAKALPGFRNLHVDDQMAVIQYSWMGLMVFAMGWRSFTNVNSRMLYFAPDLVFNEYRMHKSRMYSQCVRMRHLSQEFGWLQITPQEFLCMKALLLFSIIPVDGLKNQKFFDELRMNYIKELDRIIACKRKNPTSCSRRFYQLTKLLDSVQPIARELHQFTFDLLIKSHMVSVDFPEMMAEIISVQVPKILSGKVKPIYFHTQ
Description: Androgen Receptor ELISA assay (PathScan AR ELISA) in VCaP cells: AR degradation, Dmax and DC50. Type of assay: cell-based. The conditions noted are these: VCaP cells, Table 36; for DC50: read-out: VCaP DC50; for Dmax: VCaP, read-out: VCaP Dmax (%). The method in brief: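 VCaP cells in phenol red-free RPMI with 5% charcoal-stripped FBS were grown at least 3 days, then given compound as 7 half-log doses in 0.1% DMSO with 0.1 nM R1881 for 24 h. Lysates went into a sandwich AR ELISA with TMB read at 450 nm.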
For orientation: In an ELISA, binding on a coated surface is turned into a signal by an enzyme label.

As to `Cc1ncsc1-c1ccc([C@H](C)NC(=O)[C@@H]2C[C@@H](O)CN2C(=O)[C@@H](NC(=O)CCCCCCCc2ccc(C(=O)N[C@H]3C(C)(C)[C@H](Oc4ccc(C#N)c(Cl)c4)C3(C)C)cc2)C(C)(C)C)cc1` [Example 763, (2S,4R)-1-((S)-2-(8-(4-(((1r,3r)-3-(3-chloro-4-cyanophenoxy)-2,2,4,4-tetramethylcyclobutyl)carbamoyl)phenyl)octan-amido)-3,3-dimethylbutanoyl)-4-hydroxy-N-((S)-1-(4-(4-methylthiazol-5-yl)phenyl)ethyl)pyrrolidine-2-carboxamide], the DC50 was < 50 nM and the Dmax was > 71%.

As for `Cc1ncsc1-c1ccc([C@H](C)NC(=O)[C@@H]2C[C@@H](O)CN2C(=O)[C@@H](NC(=O)CCCCCCCCCc2ccc(C(=O)N[C@H]3C(C)(C)[C@H](Oc4ccc(C#N)c(Cl)c4)C3(C)C)cc2)C(C)(C)C)cc1` [Example 764, (2S,4R)-1-((S)-2-(10-(4-(((1r,3r)-3-(3-chloro-4-cyanophenoxy)-2,2,4,4-tetramethylcyclobutyl)carbamoyl)phenyl)decan-amido)-3,3-dimethylbutanoyl)-4-hydroxy-N-((S)-1-(4-(4-methylthiazol-5-yl)phenyl)ethyl)pyrrolidine-2-carboxamide], the DC50 lay in the range of 51 to 500 nM and the Dmax fell in the range of 51 to 70%.

For the compound `Cc1ncsc1-c1ccc([C@H](C)NC(=O)[C@@H]2C[C@@H](O)CN2C(=O)[C@@H](NC(=O)COCCN2CCN(c3ccc(C(=O)N[C@H]4C[C@H](Oc5ccc(C#N)c(Cl)c5)C4)cn3)CC2)C(C)(C)C)cc1` [Example 765, N-((1r,3r)-3-(3-chloro-4-cyanophenoxy)cyclobutyl)-6-(4-(2-(2-(((S)-1-((2S,4R)-4-hydroxy-2-(((S)-1-(4-(4-methylthiazol-5-yl)phenyl)ethyl)carbam-oyl)pyrrolidin-1-yl)-3,3-dimethyl-1-oxobutan-2-yl)amino)-2-oxoethoxy)ethyl)pipera-zin-1-yl)nicotinamide], the DC50 is > 501 nM and the Dmax is < 25%.

With `Cc1ncsc1-c1ccc([C@H](C)NC(=O)[C@@H]2C[C@@H](O)CN2C(=O)[C@@H](NC(=O)CN2CCN(CCCOCc3cc(C(=O)N[C@@H](C)Cn4ccc(-c5ccc(C#N)c(C(F)(F)F)c5)n4)n[nH]3)CC2)C(C)(C)C)cc1` [Example 766], the DC50 was > 501 nM and the Dmax was 26 to 50%.

Regarding `Cc1nc(-c2ccn(C[C@H](C)NC(=O)c3cc(COCCCN4CCN(CC(=O)N[C@H](C(=O)N5C[C@H](O)C[C@H]5C(=O)N[C@@H](C)c5ccc(-c6scnc6C)cc5)C(C)(C)C)CC4)[nH]n3)n2)ccc1C#N` [Example 767, N-((S)-1-(3-(5-cyano-6-methylpyridin-2-yl)-1H-pyrazol-1-yl)propan-2-yl)-5-((3-(4-(2-(((S)-1-((2S,4R)-4-hydroxy-2-(((S)-1-(4-(4-methylthiazol-5-yl)phenyl)ethyl)carbam-oyl)pyrrolidin-1-yl)-3,3-dimethyl-1-oxobutan-2-yl)amino)-2-oxoethyl)piperazin-1-yl)propoxy)methyl)-1H-pyrazole-3-carboxamide], the DC50 was > 501 nM and the Dmax is 26 to 50%.

As to `Cc1ncsc1-c1ccc([C@H](C)NC(=O)C2C[C@@H](O)CN2C(=O)C(NC(=O)CCCN2CCN(c3ccc(C(=O)N[C@H]4C(C)(C)[C@H](Oc5ccc(C#N)c(Cl)c5)C4(C)C)cn3)CC2)C(C)(C)C)cc1` (stereo partly drawn) [Example 768, N-((1r,3r)-3-(3-chloro-4-cyanophenoxy)-2,2,4,4-tetramethylcyclobutyl)-6-(4-(4-(((S)-1-((2S,4R)-4-hydroxy-2-(((S)-1-(4-(4-methylthiazol-5-yl)phenyl)ethyl)carbam-oyl)pyrrolidin-1-yl)-3,3-dimethyl-1-oxobutan-2-yl)amino)-4-oxobutyl)piperazin-1-yl)nicotinamide], the DC50 is > 501 nM and the Dmax was < 25%.

`CC(C)[C@H](C(=O)N1C[C@H](O)C[C@H]1C(=O)NCc1ccc(Cl)cc1)N1Cc2ccc(N3CCN(CCCc4ccc(C(=O)N[C@H]5C(C)(C)[C@H](Oc6ccc(C#N)c(C(F)(F)F)c6)C5(C)C)cc4)CC3)cc2C1=O` [Example 769, (2S,4R)-N-(4-chlorobenzyl)-1-((R)-2-(6-(4-(3-(4-(((1r,3r)-3-(4-cyano-3-(trifluoromethyl)phenoxy)-2,2,4,4-tetramethylcyclobutyl)carbamoyl)phenyl)propyl)piperaizn-1-yl)-1-oxoisoindolin-2-yl)-3-methylbutanoyl)-4-hydroxypyrrolidine-2-carboxamide]: the DC50 was > 501 nM and the Dmax was < 25%.

With `CC(C)[C@@H](C(=O)N1C[C@H](O)C[C@H]1C(=O)NCc1ccc(Cl)cc1)N1Cc2ccc(N3CCN(CCCc4ccc(C(=O)N[C@H]5C(C)(C)[C@H](Oc6ccc(C#N)c(C(F)(F)F)c6)C5(C)C)cc4)CC3)cc2C1=O` [Example 770, (2S,4R)-N-(4-chlorobenzyl)-1-((S)-2-(6-(4-(3-(4-(((1r,3r)-3-(4-cyano-3-(trifluoromethyl)phenoxy)-2,2,4,4-tetramethylcylcobutyl)carbamoyl)phenyl)propyl)piperazin-1-yl)-1-oxoisoindolin-2-yl)-3-methylbutanoyl)-4-hydroxypyrrolidine-2-carboxamide], the DC50 was > 501 nM and the Dmax was < 25%.

`CC(C)[C@H](C(=O)N1C[C@H](O)C[C@H]1C(=O)NCc1ccc(C#N)cc1)N1Cc2ccc(N3CCN(CCCc4ccc(C(=O)N[C@H]5C(C)(C)[C@H](Oc6ccc(C#N)c(C(F)(F)F)c6)C5(C)C)cc4)CC3)cc2C1=O` [Example 771, (2S,4R)-1-((R)-2-(6-(4-(3-(4-(((1r,3r)-3-(4-cyano-3-(trifluoromethyl)phenoxy)-2,2,4,4-tetramethylcyclobutyl)carbamoyl)phenyl)propyl)piperazin-1-yl)-1-oxoisoindolin-2-yl)-3-methylbutanoyl)-N-(4-cyanobenzyl)-4-hydroxypyrrolidine-2-carboxamide]: the DC50 is > 501 nM and the Dmax was < 25%.

For `CC(C)[C@@H](C(=O)N1C[C@H](O)C[C@H]1C(=O)NCc1ccc(C#N)cc1)N1Cc2ccc(N3CCN(CCCc4ccc(C(=O)N[C@H]5C(C)(C)[C@H](Oc6ccc(C#N)c(C(F)(F)F)c6)C5(C)C)cc4)CC3)cc2C1=O` [Example 772, (2S,4R)-1-((S)-2-(6-(4-(3-(4-(((1r,3r)-3-(4-cyano-3-(trifluoromethyl)phenoxy)-2,2,4,4-tetramethylcyclobutyl)carbamoyl)phenyl)propyl)piperazin-1-yl)-1-oxoisoindolin-2-yl)-3-methylbutanoyl)-N-(4-cyanobenzyl)-4-hydroxypyrrolidine-2-carboxamide], the DC50 was > 501 nM and the Dmax is < 25%.

Consider `Cc1ncsc1-c1ccc(CNC(=O)[C@@H]2C[C@@H](O)CN2C(=O)[C@@H](C(C)C)N2Cc3ccc(N4CCN(CCCc5ccc(C(=O)N[C@H]6C(C)(C)[C@H](Oc7ccc(C#N)c(Cl)c7)C6(C)C)cc5)CC4)cc3C2=O)cc1` [Example 773, (2S,4R)-1-((R)-2-(6-(4-(3-(4-(((1r,3r)-3-(3-chloro-4-cyanophenoxy)-2,2,4,4-tetramethylcyclobutyl)carbamoyl)phenyl)propyl)piperazin-1-yl)-1-oxoisoindolin-2-yl)-3-methylbutanoyl)-4-hydroxy-N-(4-(4-methylthiazol-5-yl)benzyl)pyrrolidine-2-carboxamide], for which the DC50 was > 501 nM and the Dmax was < 25%.

`Cc1ncsc1-c1ccc(CNC(=O)[C@@H]2C[C@@H](O)CN2C(=O)[C@H](C(C)C)N2Cc3ccc(N4CCN(CCCc5ccc(C(=O)N[C@H]6C(C)(C)[C@H](Oc7ccc(C#N)c(Cl)c7)C6(C)C)cc5)CC4)cc3C2=O)cc1` [Example 774, (2S,4R)-1-((S)-2-(6-(4-(3-(4-(((1r,3r)-3-(3-chloro-4-cyanophenoxy)-2,2,4,4-tetramethylcyclobutyl)carbamoyl)phenyl)propyl)piperazin-1-yl)-1-oxoisoindolin-2-yl)-3-methylbutanoyl)-4-hydroxy-N-(4-(4-methylthiazol-5-yl)benzyl)pyrrolidine-2-carboxamide]: the DC50 is > 501 nM and the Dmax was < 25%.

The values are drawn from US11427548B2 (Arvinas Operations, Inc., priority 2015, dated 2022).
